Measured values as given in patent publication US20210251228A1, “METHODS FOR REPELLING DROSOPHILA SPECIES USING 2-PENTYLFURAN” (The United States of America, as represented by the …, priority 2020, published 2021).

Tests used:
Type in all cases: in vivo
Drosophila suzukii [1] = assay: Field cage choice test: SWD oviposition on raspberries in deli cups; conditions: two-choice field cage, 10 mg/h sachet, 24 h, N=4
Protocol: Field cage choice test: We evaluated the effect of 2-pentylfuran released at 10 mg/h on SWD oviposition in choice oviposition experiment under semi-field condition using flies from SWD lab colony in Hawaii. For this experiment, we used a different, more user-friendly dispenser (polyethylene sachet: see Cha et al. 2017). The 10 mg/h release rate of 2-pentylfuran, inferred from calculating weight loss of loaded dispensers over time as described by Cha et al. 2017 (linear regression between weight of sachet containing 2-pentylfuran (mg) and time (h) during 30 h period: sachet weight=669.1[…]*time, R2=0.99, P<0.0001) was achieved using equilateral triangle shaped sachets made with two layers of polyethylene film (0.0508 mm thickness, Thermwell Products Co., Inc, Mahwah, N.J.) with 5 cm on each side. One 2 cm by 1 cm diameter piece of cotton dental wick was placed into the sachet and 1 ml of neat 2-pentylfuran was loaded onto the dental wick with a syringe. Loaded sachets were sealed using an Impulse heat-sealer (Model MP-12C, Midwest Pacific Inc., St. Louis). […]
Statistical Analyses: Trap catch data from multiple-choice assay and two-choice assay were analyzed in a randomized block design with block as a random factor and different EAD-active compounds as a fixed factor using Poisson distribution with log link function and maximum likelihood estimation (Proc Glimmix, SAS Institute, SAS/STAT 9.2 User's Guide, Second Edition, 2009, SAS Institute Inc., Cary, N.C.). Oviposition data from (1) laboratory dose-response test, (2) semi-field cage choice test, and (3) first and second field experiments were also analyzed in a randomized block design with block as a random factor and different 2-pentylfuran treatments as a fixed factor using Poisson distribution with log link function and maximum likelihood estimation. […]

Drosophila suzukii [2] = assay: Field test 2 with known 2-pentylfuran release rate: SWD infestation of field raspberries; conditions: 14.18 mg/h from two sachets, 48 h, N=15
Protocol: Field test 2 with known 2-pentylfuran release rate: We evaluated the effect of a known release rate of 2-pentylfuran on SWD infestation using 15 small plots of primocane raspberries (each plot=three 7 m rows of Heritage raspberries with 2.4 m between rows and with approximately 11 raspberries planted within each row) planted at different sites on research farms at Cornell AgriTech (plots separated by at least 0.5 km). The plantings were established in 2018 and the trial was conducted in the fall of 2019 as ripe raspberries were present along with high levels of SWD infestations in the area. At each plot we identified two fruiting canes (one for 2-pentylfuran treatment and one for control) that had large green fruit present separated by at least 3 m. After hand removal of any pink or ripe fruit, on 12 Sep. […] Ripe berries were removed from the canes, counted, weighed, placed in rearing cups (540 ml deli cups with approximately 1 cm of water agar at base with a perforated lid), and placed in a walk-in growth chamber (25° C., 55% r.h., 16:8 L:D) for 6 days at which time SWD were enumerated (mostly pupae, a few large larvae). Fruits from canes that were collected to estimate the background level of SWD infestation were evaluated for SWD infestation using the same method as for the canes used to test 2-pentylfuran. […]

Drosophila melanogaster = assay: Two-choice bioassay: attraction to apple cider vinegar traps; conditions: 20 h
Protocol: Two-Choice Bioassay with Drosophila melanogaster: The two-choice assay (N=5) was conducted with an arena design using a dome cage (30 cm W×30 cm L×30 cm H; shop.bugdorm.com) as described in Cha et al. (2012) to evaluate the effect of 2-pentylfuran on D. melanogaster, vinegar fly, attraction to apple cider vinegar, a known attractant. The same gate cup trap design was used as described above in Multiple-Choice Bioassay section. Both traps had 20 ml of apple cider vinegar with soap. […] A cotton ball (3 cm diameter) soaked with distilled water was placed in the center of the arena to provide water to D. melanogaster. . Adult flies (˜50, roughly 1:1 male: female ratio, 7-10 days old) were released in each arena. The number of flies inside treatment and control traps was counted after 20 h.
Statistical Analyses: Trap catch data from multiple-choice assay and two-choice assay were analyzed in a randomized block design with block as a random factor and different EAD-active compounds as a fixed factor using Poisson distribution with log link function and maximum likelihood estimation (Proc Glimmix, SAS Institute, SAS/STAT 9.2 User's Guide, Second Edition, 2009, SAS Institute Inc., Cary, N.C.). […]

CCCCCc1ccco1 [2-pentylfuran]
reduction of SWD oviposition on raspberries (Drosophila suzukii [1]; deli cups with 25% opening): 85%
reduction of SWD oviposition on raspberries (Drosophila suzukii [1]; deli cups with 50% opening): 62%
reduction of SWD oviposition on raspberries (Drosophila suzukii [1]; deli cups with 75% opening): 75%
reduction of SWD infestation per berry relative to control (Drosophila suzukii [2]): 56%
effect on D. melanogaster attraction to apple cider vinegar (Drosophila melanogaster; 2-pentylfuran 10 mg/h sachet in gated trap, N=5): significantly reduced
number of D. melanogaster captured in traps baited with apple cider vinegar and 2-pentylfuran (Drosophila melanogaster; among five replications, 10 mg/h, 50~67 in ACV-only traps): one
